{
  "source": "patent US8022235B2",
  "about": "“Compositions of phospholipid ether boronic acids and esters and methods for their synthesis and use” (Cellectar, Inc., priority 2007, dated 2011)",
  "key": {"[1]": {"tested_on": "carrageenan-induced granulomas", "test": "Uptake into inflammatory lesions", "parameters": "species or system rats", "settings": "rat, in vivo", "from_the_text": "The utility of tumor tracers like ^67Ga-citrate and ^18F-FDG is limited by their lack of specificity to distinguish neoplasm from inflammation. Further, accumulation of FDG in the urine interferes with visualization of pelvic and abdominal abnormalities. This lack of specificity is a significant clinical issue in patients with cancer. […] Some exemplary embodiments of PLE analogs discussed herein are illustrated in FIG. 1. […] Although FDG-PET has paved the way for hybrid imaging, its lack of tumor cell specificity will always limit its diagnostic efficacy. New molecularly targeted agents, like NM404, which display universal tumor uptake and selective retention regardless of location, as well as selectivity for malignant tumor cells and not inflammatory or hyperplastic lesions, represents a significant improvement in the detection, targeting and characterization of cancer."}, "human lung cancer": {"tested_on": "human lung cancer", "test": "Clinical evaluation of NM324, scintigraphy", "type": "in vivo", "settings": "for tumor uptake / detection: scintigraphy in lung cancer patients", "from_the_text": "FIG. 10 is a scintigraphic image of the anterior chest of Patient 03 acquired at 1, 2, and 6 days after iv administration of 1 mCi ^131I-NM324.\nBased upon this work, NM404 [18-(4-iodophenyl)-octadecyl phosphocholine] emerged due to its enhanced ability to localize in tumor, its increased metabolic clearance from the liver, and its longer plasma half-life."}, "[2]": {"molecular_target": "T1, O-Alkyl glycerol monooxygenase (AGMO) (Homo sapiens, UniProt Q6ZNB7)", "T1 construct": "Using a microsomal AGMO enzyme preparation; from tissue", "T1 sequence (Q6ZNB7 whole entry, species assumed)": "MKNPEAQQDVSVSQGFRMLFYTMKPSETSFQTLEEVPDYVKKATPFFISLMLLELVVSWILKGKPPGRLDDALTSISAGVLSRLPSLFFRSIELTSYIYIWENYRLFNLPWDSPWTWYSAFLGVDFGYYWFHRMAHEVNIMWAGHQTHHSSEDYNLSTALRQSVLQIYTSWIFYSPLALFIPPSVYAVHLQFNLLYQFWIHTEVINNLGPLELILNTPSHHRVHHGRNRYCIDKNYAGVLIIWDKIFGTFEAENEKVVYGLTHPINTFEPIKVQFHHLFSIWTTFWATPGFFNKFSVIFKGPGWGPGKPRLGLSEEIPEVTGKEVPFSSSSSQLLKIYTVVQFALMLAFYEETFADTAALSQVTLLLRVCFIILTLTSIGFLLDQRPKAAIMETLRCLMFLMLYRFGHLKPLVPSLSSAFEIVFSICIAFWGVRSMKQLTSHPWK", "test": "Microsomal AGMO substrate assay", "type": "biochemical", "settings": "microsomal enzyme preparation", "protocol": "(§1) Formal metabolism studies were conducted on several PLE analogs including NM324, the predecessor of NM404. In these studies, each agent was examined to determine its ability to serve as substrates for enzymes associated with PLE metabolism. Three major enzymatic pathways are involved in the metabolism of PLE. O-Alkyl glycerol monooxygenase (AGMO) is responsible for cleavage of the alkyl ether linkage at C-1 to form either the long chain fatty alcohol or subsequently, the corresponding fatty acid. Phospholipases C (PLC) and D (PLD), on the other hand, give rise to the glycerol or phosphatidic acid products, respectively."}, "[3]": {"molecular_target": "T2, PLC isolated from Bacillus cereus (Bacillus cereus, UniProt P09598)", "T2 construct": "PLC isolated from Bacillus cereus; endogenous in cells; host or cells: Bacillus cereus", "T2 sequence (P09598 39-283 limits assumed)": "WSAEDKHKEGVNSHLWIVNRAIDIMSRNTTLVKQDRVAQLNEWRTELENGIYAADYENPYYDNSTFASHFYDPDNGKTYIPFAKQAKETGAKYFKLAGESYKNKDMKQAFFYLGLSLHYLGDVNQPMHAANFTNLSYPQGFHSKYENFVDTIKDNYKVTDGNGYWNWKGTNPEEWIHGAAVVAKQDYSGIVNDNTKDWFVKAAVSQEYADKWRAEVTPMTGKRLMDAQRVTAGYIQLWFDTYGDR", "test": "PLC substrate assay", "type": "biochemical", "protocol": "as §1"}, "Blood plasma kinetics": {"test": "Blood plasma kinetics", "parameters": "species or system rats", "settings": "rat, in vivo"}, "animal tumor models [4]": {"tested_on": "animal tumor models", "test": "Imaging and biodistribution across animal tumor models (general statements)", "settings": "mammary, prostate, squamous cell carcinoma, ovarian, colorectal, melanoma", "from_the_text": "See, for example, U.S. patent application Ser. Nos. 10/906,687, 11/177,740, 11/316,620 and 11/382,645. Due to deficiencies in metabolic phospholipase enzymes in the membranes of malignant tumor cells, the prevailing hypothesis for this specificity is that phospholipid ether analogs become trapped exclusively in tumor cell membranes because of their inability to become metabolized and eliminated by the cancerous cell. Thus, the differential clearance rates of phospholipid ethers from normal cells versus neoplastic tumor cells are responsible for this specificity.\nThe reason for the retention of PLE and analogs in cancer cells remains unknown. Without being held to any particular theory, however, the prevailing hypothesis, is that radioiodinated PLE and APC analogs become trapped in tumor cell membranes because of their inability to be metabolized and eliminated. On the other hand, such lipid molecules are metabolized and cleared by normal tissues, including the liver.\nThese PLE analogs are specifically designed to incorporate aromatic radioiodine in order to render the molecule stable towards in vivo deiodination."}, "animal tumor models [5]": {"tested_on": "animal tumor models", "settings": "radioiodinated analogs, xenograft and spontaneous tumor rodent models, previous reports; cited from earlier work"}, "[6]": {"settings": "excess boron ingestion; cited from earlier work"}, "rat mammary tumor": {"tested_on": "rat mammary tumor", "test": "Biodistribution of 125I-NM324 in rat mammary tumor model", "type": "in vivo"}, "[7]": {"tested_on": "non-small cell lung cancer (NSCLC)", "test": "Initial human pharmacokinetic evaluation, planar gamma-camera scintigraphy", "type": "in vivo", "settings": "<1 mCi injection, preliminary, n=3", "from_the_text": "FIG. 6A-C images of lung cancer patient, posterior whole body planar nuclear medicine image (A) 4 days after iv administration of ^131I-NM404 (0.8 mCi) to a patient with non small cell lung cancer (6 cm dia., arrow). Lung tumor is easily detected in corresponding axial (B) and coronal (C) computed tomography (CT) scans;\nIn preparation for human clinical trials, unlabeled NM404 was subjected to independent (University of Buffalo Toxicology Research Center) acute toxicity evaluation at 1200 times the anticipated imaging mass dose in rats and rabbits. […] Due to its selective tumor uptake and retention properties in a variety of rodent tumor models and subsequent excellent safety profile in rats and rabbits, NM404 was selected to undergo initial human pharmacokinetic evaluation in non-small cell lung cancer (NSCLC) patients. Patients underwent planar gamma-camera scintigraphy after receiving an injection of ^131I-NM404 (<1 mCi)."}, "Prostate MatLyLu": {"tested_on": "Prostate MatLyLu", "test": "Gamma camera scintigraphy screen in Dunning R3327 (MAT LyLu) prostate cancer model", "type": "in vivo, Copenhagen rats", "settings": "radioiodinated analog 30-40 μCi, images incl. 24 and 48 hours post injection", "protocol": "The avidity of PLE and APC analogs to localize in tumors was evaluated in several animal models. The PC-3 model represents a human tumor cell line that was used to determine the target (tumor) to non-target ratio of NM404 and NM412 in head to head comparison in order to select a candidate for an initial human pharmacokinetic trial in prostate cancer patients. The MatLyLu (Dunning R3327 rat) model, a rat prostate tumor line, was used specifically to screen 9 specific analogs prior to entering them into control for dosimetry and tumor-bearing animals for determining tumor/background ratios. Finally, the Walker-256 carcinosarcoma model was used for quantitative tissue distribution purposes.\nIn order to expedite the screening process and minimize the number of tumor bearing animals utilized in multiple time point tissue distribution studies, new radioiodinated homologs were imaged by gamma camera scintigraphy in the rat Dunning […] (MAT LyLu strain) prostate cancer model. Thus, male Copenhagen rats received a subcutaneous injection of MAT LyLu cells (1×10^6 cells) in the thigh 10-14 days prior to injection of the radioiodinated PLE analogs (30-40 μCi) in 2% Tween-20 solution. Gamma camera images were obtained at multiple time points including 24 and 48 hours post injection. […] Tissue distribution of radioactivity in rats bearing Walker-256 carcinosarcoma was assessed at various time intervals following intravenous administration of the radioiodinated chain length homologs. The first group of compounds that was tested included three alkylphosphocholines: a shorter chain analog with seven carbons NM396 and two analogs with a longer chain length, 13 (NM397, C15 alkyl chain length) and 1 (NM404, C18 alkyl chain length).\nIn order to decrease liver uptake and prolong the plasma phase, the inventors examined 9 structural analogs of NM324 to identify agents that would display improved tumor-to-background tissue ratios with decreased liver uptake. The new PLE analogs were synthesized and radiolabeled with ^125I for initial image analysis in Copenhagen rats bearing Dunning R3327 prostate tumors. […] NM404 was therefore selected to undergo further imaging and biodistribution analysis in a variety of animal-tumor models."}, "serum proteins": {"tested_on": "serum proteins", "settings": "cited from earlier work"}, "[8]": {"tested_on": "human PC-3 prostate tumor xenografts", "test": "Scintigraphy, microPET and tissue distribution in PC-3 tumor model", "type": "in vivo, SCID mice", "settings": "advanced metastatic PC-3, 48 h post iv injection"}},
  "note": "Entries after “also recorded” stand apart in the source; their conditions may differ.",
  "data": [
    {"smiles": "C[N+](C)(C)CCOP(=O)([O-])OCCCCCCCCCCCCc1cccc(I)c1", "note": "[NM324, 12-(m-iodophenyl)dodecyl phosphocholine]", "values": [
      {"measurement": "uptake and retention in granulomas", "setting": "[1]", "value": "no uptake and retention"},
      {"measurement": "liver uptake", "setting": "human lung cancer; initial human pharmacokinetic studies", "value": "high liver uptake values; also recorded: unacceptable accumulation in liver tissue; also recorded: images were complicated by high liver radioactivity"},
      {"measurement": "tumor uptake / detection", "setting": "human lung cancer", "value": "detected tumors"},
      {"measurement": "substrate for AGMO", "setting": "[2]", "value": "not a substrate"},
      {"measurement": "hydrolysis by PLC", "setting": "[3]", "value": "not hydrolyzed"},
      {"measurement": "elimination half life time in plasma", "setting": "Blood plasma kinetics", "value": 2.43, "unit": "h"},
      {"measurement": "tumor visualization by scintigraphy", "setting": "animal tumor models [4]", "value": "successfully visualized"},
      {"measurement": "selective retention by tumors", "setting": "animal tumor models [5]", "value": "selectively retained by a variety of human and animal tumors"}
    ]},
    {"smiles": "C[N+](C)(C)CCOP(=O)([O-])OCCCCCCCCCCCCc1cccc([131I])c1", "note": "[^131I-NM324]", "values": [
      {"measurement": "tumor uptake / detection", "setting": "human lung cancer", "value": "Uptake is seen in the left lingular lung cancer (T) with increasing tumor-to-background ratios over time"}
    ]},
    {"smiles": "OB(O)O", "note": "[boric acid]", "values": [
      {"measurement": "excretion", "setting": "[6]", "value": "excreted rapidly in the urine"},
      {"measurement": "time to disappearance", "setting": "[6]", "value": "≤ 4", "unit": "days"}
    ]},
    {"smiles": "[3H]C(CCCCCC)C([3H])CCCCCCCC(=O)O[C@H](COC(=O)CCCCCCCCCCCCCCC)COP(=O)([O-])OCC[N+](C)(C)C", "note": "(stereo partly drawn) [DPPC, 1-palmitoyl-2-[^3H]-palmitoyl-L-3-phosphatidylcholine, reference compound]", "values": [
      {"measurement": "hydrolysis by PLC", "setting": "[3]", "value": "underwent significant hydrolysis"}
    ]},
    {"smiles": "O=C([O-])CC(O)(CC(=O)[O-])C(=O)[O-].[Ga+3]", "note": "[Gallium citrate, reference compound]", "values": [
      {"measurement": "uptake and retention in granulomas", "setting": "[1]", "value": "concentrate significantly in the granulomatous lesions"}
    ]},
    {"smiles": "C[N+](C)(C)CCOP(=O)([O-])OCCCCCCCCCCCCc1cccc([125I])c1", "note": "[Compound 125I-NM324]", "values": [
      {"measurement": "tumor-to-blood ratio", "setting": "rat mammary tumor; 96 hours", "value": 8.6},
      {"measurement": "time of maximum tumor-to-normal tissue ratios", "setting": "rat mammary tumor; rat, in vivo", "value": 96, "unit": "h"}
    ]},
    {"smiles": "C[N+](C)(C)CCOP(=O)([O-])OCCCCCCCCCCCCCCCCCCc1ccc([131I])cc1", "note": "[^131I-NM404]", "values": [
      {"measurement": "tumor uptake and retention", "setting": "[7]", "value": "tumor uptake and prolonged retention in primary lung tumors"}
    ]},
    {"smiles": "COC(COCCCCCCCCCCCCCCCCCCc1ccc(I)cc1)COP(=O)([O-])OCC[N+](C)(C)C", "note": "(stereo not drawn) [NM410]", "values": [
      {"measurement": "gamma camera imaging findings (tumor, liver, abdomen)", "setting": "Prostate MatLyLu", "value": "high hepatic uptake, significant abdominal accumulation and retention or poor tumor uptake and retention; also recorded: high radioactivity levels in the liver and abdomen with little to no uptake of the agent into tumors"}
    ]},
    {"smiles": "CCCCCCCCCCCCCCCCCCOCC(COP(=O)([O-])OCC[N+](C)(C)C)OC", "note": "(stereo not drawn) [ET-18-OCH3]", "values": [
      {"measurement": "ether lipid bound to HDL", "setting": "serum proteins", "value": "about 6%"},
      {"measurement": "ether lipid bound to albumin", "setting": "serum proteins", "value": 71, "unit": "%"}
    ]},
    {"smiles": "C[N+](C)(C)CCOP(=O)([O-])OCCCCCCCCCCCCCCCCCCc1ccc([124I])cc1", "note": "[^124I-NM404]", "values": [
      {"measurement": "microPET uptake in primary tumor and lymph nodes", "setting": "[8]", "value": "significant uptake"}
    ]},
    {"smiles": "COC(COCCCCCCCCCCCCc1cccc([125I])c1)COP(=O)([O-])OCC[N+](C)(C)C", "note": "(stereo not drawn) [NM294]", "values": [
      {"measurement": "selective retention by tumors", "setting": "animal tumor models [5]", "value": "selectively retained by a variety of human and animal tumors"}
    ]}
  ]
}
